Test results as given in patent US20210000912A1, “Compositions And Methods For Prophylaxis Or Treatment Of Pain” (Interk Peptide Therapeutics Limited, priority 2017, published 2021).
Read-outs that look alike come from different tables or passages of the source. Non-standard residues stand in square brackets, D forms with d. Residues, ends and D or L forms follow the SMILES beside them. No end group written: not given here. Orn = NCCC[C@H](N)C(=O)O

Key:
c-Src (h) = target: T1, c-Src (h) (Homo sapiens, UniProt P12931); assay: c-Src kinase activity assay, cell free; format: biochemical
T1 construct: purchased Eurofins Pharma Discovery Services UK Ltd (contract assay service)
T1 sequence (P12931 whole entry): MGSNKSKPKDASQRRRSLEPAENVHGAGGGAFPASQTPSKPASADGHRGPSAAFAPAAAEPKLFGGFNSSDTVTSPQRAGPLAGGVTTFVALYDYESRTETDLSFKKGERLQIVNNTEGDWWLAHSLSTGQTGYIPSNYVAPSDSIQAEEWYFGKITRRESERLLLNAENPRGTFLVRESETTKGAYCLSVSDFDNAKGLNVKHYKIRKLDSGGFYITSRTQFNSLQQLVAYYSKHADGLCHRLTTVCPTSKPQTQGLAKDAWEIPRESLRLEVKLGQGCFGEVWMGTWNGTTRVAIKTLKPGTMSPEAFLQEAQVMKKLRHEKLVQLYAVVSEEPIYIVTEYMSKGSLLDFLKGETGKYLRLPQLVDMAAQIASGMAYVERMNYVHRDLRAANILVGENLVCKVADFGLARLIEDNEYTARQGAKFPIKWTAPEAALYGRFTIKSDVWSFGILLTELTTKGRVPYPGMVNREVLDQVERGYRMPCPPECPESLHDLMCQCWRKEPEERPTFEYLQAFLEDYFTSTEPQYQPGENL
Method: (§1) The capacity of test peptides to inhibit the activity of the kinases PKG1α, PKG1β, and Src family kinases in a cell free assay was assessed. The test peptides were amidated at their C-terminal end (indicated by “—NH2”) unless otherwise noted. Kinase activity assays were conducted by Eurofins Pharma Discovery Services UK Ltd (Dundee Technology Park, Dundee, United Kingdom) and Reaction Biology Corp. (Malvern, Pa., USA).
(§2) All test peptides are prepared to 50× final assay concentration in 100% DMSO. This working stock of the test compound is added to assay wells as the first component in the reaction, followed by the remaining components of the respective assay protocols described below. There is no pre-incubation step between the test peptide and the kinase prior to initiation of the reaction. The kinases are diluted in buffer (20 mM MOPS, 1 mM EDTA, 0.01% Brij-35, 5% Glycerol, 0.1% β-mercaptoethanol, 1 mg/mL BSA) prior to addition to the reaction mix.
(§3) Positive control wells contain all components of the reaction, except the test peptide of interest. However, DMSO (at a final concentration of 2%) is included in positive control wells to control for solvent effects. Negative control wells contain all components of the reaction, with a reference inhibitor (staurosporine) replacing the test peptide. This abolishes kinase activity and establishes a base-line (0% kinase activity). Kinase assay protocols (Eurofins Pharma Discovery Services UK Ltd, Dundee Technology Park, Dundee, United Kingdom) are described below. Of the Src family kinases, only the assay protocol for c-Src is shown.
(§4) c-Src (h) is incubated with 8 mM MOPS pH 7.0, 0.2 mM EDTA, 250 μM KVEKIGEGTYGVVYK (Cdc2 peptide), 10 mM MgAcetate and [γ-^33P]-ATP (specific activity approx. 500 cpm/pmol, concentration as required). The reaction is initiated by the addition of the MgATP mix. After incubation for 40 minutes at room temperature, the reaction is stopped by the addition of 3% phosphoric acid solution. A 10 μL aliquot of the reaction is then spotted onto a P30 filtermat and washed three times for 5 minutes in 75 mM phosphoric acid and once in methanol prior to drying and scintillation counting.

PKG1β (h) = target: T2, PKG1β (h) (Homo sapiens, UniProt Q13976); assay: PKG1β kinase activity assay, cell free; format: biochemical
T2 construct: purchased Eurofins Pharma Discovery Services UK Ltd (contract assay service)
T2 sequence (Q13976 1-686 isoform Q13976-2): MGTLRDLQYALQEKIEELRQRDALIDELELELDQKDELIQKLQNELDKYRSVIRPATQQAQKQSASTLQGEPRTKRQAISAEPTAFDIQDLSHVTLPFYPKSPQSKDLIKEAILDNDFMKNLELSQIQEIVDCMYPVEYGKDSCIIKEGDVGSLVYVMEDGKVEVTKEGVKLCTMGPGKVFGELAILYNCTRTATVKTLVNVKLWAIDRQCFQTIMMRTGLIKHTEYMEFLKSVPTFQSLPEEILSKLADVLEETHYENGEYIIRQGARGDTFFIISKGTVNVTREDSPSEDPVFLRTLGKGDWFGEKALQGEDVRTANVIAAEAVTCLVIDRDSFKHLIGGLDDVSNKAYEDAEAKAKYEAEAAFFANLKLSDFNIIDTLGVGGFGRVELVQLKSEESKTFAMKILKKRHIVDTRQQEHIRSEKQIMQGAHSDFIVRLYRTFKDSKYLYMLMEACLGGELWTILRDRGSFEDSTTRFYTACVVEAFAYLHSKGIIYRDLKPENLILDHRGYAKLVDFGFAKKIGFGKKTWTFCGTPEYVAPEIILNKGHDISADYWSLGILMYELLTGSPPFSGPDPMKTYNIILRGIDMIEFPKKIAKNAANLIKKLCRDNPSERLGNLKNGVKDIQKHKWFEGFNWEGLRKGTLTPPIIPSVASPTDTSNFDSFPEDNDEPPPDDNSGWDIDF
Method: as §1, §2, §3
as §4, with “PKG1b(h) is” for “c-Src (h) is”, “EDTA, 10” for “EDTA, 250”, “μM cGMP, 200 μM RRRLSFAEPG,” for “μM KVEKIGEGTYGVVYK (Cdc2 peptide),”, “mM magnesium acetate” for “mM MgAcetate”, “5 mins” for “5 minutes”

PKG1α (h) = target: T3, PKG1α (h) (Homo sapiens, UniProt Q13976); assay: PKG1α kinase activity assay, cell free; format: biochemical
T3 construct: purchased Eurofins Pharma Discovery Services UK Ltd (contract assay service)
T3 sequence (Q13976 1-671): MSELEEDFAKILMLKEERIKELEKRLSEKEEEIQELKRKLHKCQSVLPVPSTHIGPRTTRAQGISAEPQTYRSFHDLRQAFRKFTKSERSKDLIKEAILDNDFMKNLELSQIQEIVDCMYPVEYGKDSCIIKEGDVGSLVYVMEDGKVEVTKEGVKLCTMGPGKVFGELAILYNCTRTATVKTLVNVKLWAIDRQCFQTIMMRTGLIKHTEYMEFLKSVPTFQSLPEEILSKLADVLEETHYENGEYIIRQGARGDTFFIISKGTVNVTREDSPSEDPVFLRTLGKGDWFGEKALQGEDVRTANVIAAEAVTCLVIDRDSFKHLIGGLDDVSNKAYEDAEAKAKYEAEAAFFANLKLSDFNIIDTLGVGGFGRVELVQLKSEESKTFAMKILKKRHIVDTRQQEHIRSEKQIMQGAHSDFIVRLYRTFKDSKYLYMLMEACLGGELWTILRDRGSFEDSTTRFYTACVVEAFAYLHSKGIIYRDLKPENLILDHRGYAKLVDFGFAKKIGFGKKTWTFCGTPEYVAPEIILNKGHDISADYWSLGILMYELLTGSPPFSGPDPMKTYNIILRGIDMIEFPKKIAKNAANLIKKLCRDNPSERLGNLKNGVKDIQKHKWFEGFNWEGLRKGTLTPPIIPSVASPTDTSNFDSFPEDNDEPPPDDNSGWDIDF
Method: as §1, §2, §3
as §4, with “PKG1α (h)” for “c-Src (h)”, “EDTA, 10” for “EDTA, 250”, “μM cGMP, 200 μM peptide RRRLSFAEPG,” for “μM KVEKIGEGTYGVVYK (Cdc2 peptide),”, “mM magnesium acetate” for “mM MgAcetate”, “5 mins” for “5 minutes”

[1] = Resistance to simulated gastric fluid; format: in vitro ADME
Method: Test 14 Arg peptides consisting of 14 contiguous L- or D-arginine amino acids were tested for resistance to simulated gastric fluid (porcine pepsin in a HCl and NaCl solution) at a pH of 2.01 for a period of 24 hours. Negligible degradation of each peptide was observed by exposure to the simulated gastric fluid over the 24 hour test period.

[2] = cell free, 40 minutes at room temperature, read-out: c-Src IC50
[3] = cell free, 10 μM cGMP, 40 minutes at room temperature, read-out: PKG1β IC50
[4] = cell free, 10 μM cGMP, 40 minutes at room temperature, read-out: PKG1α IC50

Row | Molecule | IC50 (c-Src (h)) [nM] | IC50 (PKG1β (h)) [nM] | IC50 (PKG1α (h)) [nM] | IC50 (c-Src (h); [2]) [nM] | IC50 (PKG1β (h); [3]) [nM] | IC50 (PKG1α (h); [4]) [nM] | also measured
1 | NCCC[C@H](NC(=O)[C@H](CCCN)NC(=O)[C@H](CCCN)NC(=O)[C@H](CCCN)NC(=O)[C@H](CCCN)NC(=O)[C@H](CCCN)NC(=O)[C@H](CCCN)NC(=O)[C@H](CCCN)NC(=O)[C@H](CCCN)NC(=O)[C@@H](N)CCCN)C(N)=O [IKNOR10, OrnOrnOrnOrnOrnOrnOrnOrnOrnOrn-NH2, reference compound] (H-[Orn][Orn][Orn][Orn][Orn][Orn][Orn][Orn][Orn][Orn]-NH2; N-terminus assumed) | 7 | > 1000 | > 1000 | – | – | – | –
2 | N=C(N)NCCC[C@H](NC(=O)[C@H](CCCNC(=N)N)NC(=O)[C@H](CCCNC(=N)N)NC(=O)[C@H](CCCNC(=N)N)NC(=O)[C@H](CCCNC(=N)N)NC(=O)[C@H](CCCNC(=N)N)NC(=O)[C@H](CCCNC(=N)N)NC(=O)[C@H](CCCNC(=N)N)NC(=O)[C@@H](N)CCCNC(=N)N)C(N)=O [IK00900, RRRRRRRRR-NH2] | – | – | – | 4 | 22 | 33.5 | –
3 | N=C(N)NCCC[C@H](NC(=O)[C@H](CCCNC(=N)N)NC(=O)[C@H](CCCNC(=N)N)NC(=O)[C@H](CCCNC(=N)N)NC(=O)[C@H](CCCNC(=N)N)NC(=O)[C@H](CCCNC(=N)N)NC(=O)[C@H](CCCNC(=N)N)NC(=O)[C@H](CCCNC(=N)N)NC(=O)[C@H](CCCNC(=N)N)NC(=O)[C@H](CCCNC(=N)N)NC(=O)[C@H](CCCNC(=N)N)NC(=O)[C@H](CCCNC(=N)N)NC(=O)[C@H](CCCNC(=N)N)NC(=O)[C@@H](N)CCCNC(=N)N)C(=O)O [IK0140H, RRRRRRRRRRRRRR] | > 1000 | 7 | 7 | – | – | – | –
4 | N=C(N)NCCC[C@H](NC(=O)[C@H](CCCNC(=N)N)NC(=O)[C@H](CCCNC(=N)N)NC(=O)[C@H](CCCNC(=N)N)NC(=O)[C@H](CCCNC(=N)N)NC(=O)[C@@H](N)CCCNC(=N)N)C(N)=O [IK00600, RRRRRR-NH2] | – | – | – | 100 | 457 | > 1000 | –
5 | N=C(N)NCCC[C@H](NC(=O)[C@H](CCCNC(=N)N)NC(=O)[C@H](CCCNC(=N)N)NC(=O)[C@H](CCCNC(=N)N)NC(=O)[C@H](CCCNC(=N)N)NC(=O)[C@H](CCCNC(=N)N)NC(=O)[C@H](CCCNC(=N)N)NC(=O)[C@@H](N)CCCNC(=N)N)C(N)=O [IK00800, RRRRRRRR-NH2] | – | – | – | 26 | 55 | 75 | –
6 | N=C(N)NCCC[C@H](NC(=O)[C@H](CCCNC(=N)N)NC(=O)[C@H](CCCNC(=N)N)NC(=O)[C@H](CCCNC(=N)N)NC(=O)[C@H](CCCNC(=N)N)NC(=O)[C@H](CCCNC(=N)N)NC(=O)[C@H](CCCNC(=N)N)NC(=O)[C@H](CCCNC(=N)N)NC(=O)[C@H](CCCNC(=N)N)NC(=O)[C@H](CCCNC(=N)N)NC(=O)[C@H](CCCNC(=N)N)NC(=O)[C@@H](N)CCCNC(=N)N)C(N)=O [IK01200, RRRRRRRRRRRR-NH2] | 6 | 7 | 8 | – | – | – | –
7 | RRRRRRRRRRRRRRRRRRRR-NH2 [IK00200] | – | – | – | – | 6 | 6 | –
8 | HHHHHHHHHH-NH2 [IK00010, HHHHHHHHHH-NH2, reference compound] | – | – | – | > 1000 | > 1000 | > 1000 | –
9 | N=C(N)NCCC[C@@H](N)C(=O)N[C@H](CCCNC(=N)N)C(=O)N[C@H](CCCNC(=N)N)C(=O)N[C@H](CCCNC(=N)N)C(=O)N[C@H](CCCNC(=N)N)C(=O)N[C@H](CCCNC(=N)N)C(=O)N[C@H](CCCNC(=N)N)C(=O)N[C@H](CCCNC(=N)N)C(=O)N[C@H](CCCNC(=N)N)C(=O)N[C@H](CCCNC(=N)N)C(=O)N[C@H](CCCNC(=N)N)C(=O)N[C@H](CCCNC(=N)N)C(=O)N[C@H](CCCNC(=N)N)C(=O)N[C@H](CCCNC(=N)N)C(N)=O [IKD01400, rrrrrrrrrrrrrr-NH2] | 6 | 10 | 11 | – | – | – | remaining at 1 h ([1]; pig, simulated gastric fluid with porcine pepsin, simulated gastric fluid pH 2.01, 1 hr, read-out: % of intact peptide observed): 98.9%; remaining at 4 h ([1]; pig, simulated gastric fluid with porcine pepsin, simulated gastric fluid pH 2.01, 4 hrs, read-out: % of intact peptide observed): 98.7%; remaining at 24 h ([1]; pig, simulated gastric fluid with porcine pepsin, simulated gastric fluid pH 2.01, 24 hrs, read-out: % of intact peptide observed): 97.5%; % of intact peptide observed ([1]; simulated gastric fluid pH 2.01, time 0): 98.79%
10 | RRRRRRRRRRRRRRRR-NH2 [IK01600, RRRRRRRRRRRRRRRR-NH2] | – | – | – | 4 | 4 | 6 | –
11 | N=C(N)NCCC[C@H](NC(=O)[C@H](CCCNC(=N)N)NC(=O)[C@H](CCCNC(=N)N)NC(=O)[C@H](CCCNC(=N)N)NC(=O)[C@H](CCCNC(=N)N)NC(=O)[C@H](CCCNC(=N)N)NC(=O)[C@H](CCCNC(=N)N)NC(=O)[C@H](CCCNC(=N)N)NC(=O)[C@H](CCCNC(=N)N)NC(=O)[C@@H](N)CCCNC(=N)N)C(N)=O [IK00100, RRRRRRRRRR-NH2] | – | – | – | 7 | 9 | 16 | –
12 | KKKKKKKKKK-NH2 [IK00K00, KKKKKKKKKK-NH2, reference compound] | – | – | – | 96 | > 1000 | > 1000 | –
